Values of other authors, collected in patent publication US9226893B2, “Method for storing silica-based material, package produced with the method and use of package for packaging of silica-based products” (DelSiTech Oy, priority 2006, dated 2016).

## lysozyme: Lysozyme released from sol-gel derived silica gel (literature, Wilson et al.)
Gel let to dry and age simultaneously, within few weeks
  activity of released lysozyme: substantially reduced
Silica gel which had not dried, with or without protective agent
  amount of biologically active lysozyme relative to total amount of released lysozyme: ~100%
